Measured values published in publication PMC9246869, “Allosteric inhibition of PPM1D serine/threonine phosphatase via an altered conformational state” (Nature Communications, 2022).
Where “and” joins values, the source holds several entries; their conditions need not be identical. Identical values can stand only once.

How the values were obtained:
Solubility = assay type: physicochemical; conditions: precluded ITC
PPM1D1–420 [1] = molecular target: T1, PPM1D1–420 (Homo sapiens, UniProt O15297); test: Differential scanning fluorimetry (DSF); assay type: binding; design: key to DSF Trial 1 (Tm) / DSF Trial 2 (Tm) / DSF Trial 3 (Tm) / DSF average (Tm) / DSF melting temperature with GSK2830371 / DSF melting temperature with GSK2830371, Average: melting temperature Tm in °C
T1 construct: PPM1D1–420 was PCR-amplified from the synthesized gene with BsaI sites; His(6)-SUMO (N, cleaved yes); made in house; host or cells: E. coli BL21 (DE3)
T1 sequence (O15297 1-420): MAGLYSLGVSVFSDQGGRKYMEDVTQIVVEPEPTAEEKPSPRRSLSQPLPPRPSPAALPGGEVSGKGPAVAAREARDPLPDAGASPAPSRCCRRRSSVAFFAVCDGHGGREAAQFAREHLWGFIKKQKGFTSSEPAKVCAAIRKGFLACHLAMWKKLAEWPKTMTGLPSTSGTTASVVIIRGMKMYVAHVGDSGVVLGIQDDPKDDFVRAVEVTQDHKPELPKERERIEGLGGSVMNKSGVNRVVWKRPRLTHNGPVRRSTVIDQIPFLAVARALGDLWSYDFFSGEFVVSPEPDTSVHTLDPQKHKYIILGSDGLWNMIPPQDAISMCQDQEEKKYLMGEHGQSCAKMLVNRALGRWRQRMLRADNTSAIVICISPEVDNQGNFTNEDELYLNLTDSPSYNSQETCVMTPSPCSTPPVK
Protocol: The purified protein constructs were mixed in the assay buffer containing 25 mM HEPES pH 7.5, 10 mM MgCl2, 150 mM NaCl. The sample preparation for the DSF assay included incubating the protein constructs (final concentration 0.2–0.4 mg/mL) with either DMSO alone (control) or with 40 µM GSK2830371 for 30 min before the addition of the Sypro orange dye (final concentration 10×). The final reaction volume of 10 µL was pipetted into a 384 multi-well clear plate (Light Cycler 480), sealed using a foil and spun down at 1000 × g for 2 min. The fluorescence emission intensity of the Sypro Orange dye was monitored in a LightCycler-480 instrument by running the Protein Melt program. The program was run in a continuous acquisition mode from 25 °C to 95 °C with a ramp rate of 0.06 °C/s (with 10 acquisitions/°C). The data (first derivative of the fluorescence signal as a function of temperature) was analyzed using the LightCycler-480 software for measuring the Tm values with and without the compound. A separate control with buffer alone and buffer with compound was run in the same plate to subtract out the potential interactions of the buffer components and/or the compound with the dye.

PPM1D1–420 [2] = molecular target: T1, PPM1D1–420; test: Differential scanning calorimetry (DSC); assay type: binding
Protocol: (§1) DSC thermograms were recorded in MicroCal DSC from Malvern with an autosampler. For DSC experiments the purified protein constructs were extensively dialyzed against 25 mM HEPES pH 7.5, 10 mM MgCl2, 150 mM NaCl and 1 mM TCEP. The experiments were performed using 0.4 mg/mL concentration of wild-type or mutant protein (8.5–8.9 µM), with and without GSK2830371 compound at 40 µM and 2% DMSO (v/v). The respective reference scans were run under identical DSC set up conditions and subtracted from each sample scan. The program was run in a continuous acquisition mode from 25 °C to 90 °C at a rate of 120 °C/h The heat capacity curves and midpoint temperature (Tm) were analyzed using Origin 7.0 software.

PPM1DΔflap = molecular target: T2, PPM1DΔflap (Homo sapiens, UniProt O15297, DEL219-231/DEL235-284/E287S/S285N); test: Differential scanning calorimetry (DSC); assay type: binding; conditions: Supplementary Fig. 5B
T2 construct: PPM1D1–218-GGSNGS-288–420 (PPM1D∆flap); His(6)-SUMO (N, cleaved yes); made in house; host or cells: E. coli BL21 (DE3)
T2 sequence (O15297 with tags, fused parts or gaps DEL219-231/DEL235-284/S285N/E287S): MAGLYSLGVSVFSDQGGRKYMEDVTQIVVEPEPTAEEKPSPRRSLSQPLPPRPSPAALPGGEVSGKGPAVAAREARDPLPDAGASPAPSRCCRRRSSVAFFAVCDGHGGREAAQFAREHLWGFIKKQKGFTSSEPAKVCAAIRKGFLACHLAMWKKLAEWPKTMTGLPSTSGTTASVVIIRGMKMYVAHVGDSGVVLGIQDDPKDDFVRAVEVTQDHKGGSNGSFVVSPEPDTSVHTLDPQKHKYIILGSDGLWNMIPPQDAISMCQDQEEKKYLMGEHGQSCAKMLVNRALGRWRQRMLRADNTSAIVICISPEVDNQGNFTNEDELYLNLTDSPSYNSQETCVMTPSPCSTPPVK
Protocol: as §1

PPM1D1–420 [3] = molecular target: T1, PPM1D1–420; test: Isothermal titration calorimetry (ITC); assay type: binding; design: DH / DS: unit not given here; conditions: Fig 3F
Protocol: Assessments of the analog of GSK2830371 (analog 1d) binding to wild-type and mutant proteins were conducted using an Auto-iTC200 microcalorimeter (Malvern) (see section on synthesis of analog 1d below). The protein was dialyzed extensively into 25 mM HEPES (pH 7.4), 150 mM NaCl, 10 mM MgCl2 and 1 mM TCEP. The dialyzed protein was used to prepare fresh working solutions of protein (20 µM) and analog 1d (200 µM) in 2% DMSO (v/v) in the same buffer. Titrations were performed at 25 °C and consisted of a single initial injection of 0.4 µL, followed by 19 injections of 2 µL of compound into a sample cell containing wild-type or mutant PPM1D, with an interval of 150 s between successive injections. The reference power and stirring speed were set at […] and 1000 RPM, respectively. Heat of dilution and mixing were obtained from injections of analog 1d into ITC buffer lacking protein and subtracted from the integrated data before curve fitting. Thermodynamic data were analyzed using Origin 7.0 software and fitted by non-linear regression to the model for a single binding site.

[4] = Sup Fig 2D, protein with GSK, average of trials
[5] = source data Fig 3C, with GSK, in °C (unit assumed)

**Q.** With `Cc1ncc(Cl)cc1NCc1ccc(C(=O)N[C@@H](CC2CCCC2)C(=O)NC2CC2)s1` [GSK2830371] as the molecule, how does the “solubility (in words)” value (Solubility) read?
**A.** relatively low solubility

**Q.** What about the “DSF melting temperature with GSK2830371, Average” value (PPM1D1–420 [1]; PPM1D 1-420, average of 4 trials, in °C (unit assumed)) of the same molecule?
**A.** 59.7917

**Q.** And the “DSF melting temperature with GSK2830371” value (PPM1D1–420 [1]; PPM1D 1-420, individual trials, in °C (unit assumed))?
**A.** 59.846 and 59.6596 and 59.8596 and 59.8015

**Q.** And the ΔTm at 40 µM (PPM1D1–420 [1]; PPM1D1–420, 40 µM compound, read-out: thermal shift by DSF)?
**A.** ~8 °C

**Q.** What about the “DSF Trial 1 (melting temperature)” value (PPM1D1–420 [1]; Sup Fig 2D, protein with GSK vs WT (DMSO), trial 1) of the same molecule?
**A.** 59.84 ˚C

**Q.** What about the “DSF Trial 2 (melting temperature)” value (PPM1D1–420 [1]; Sup Fig 2D, protein with GSK vs WT (DMSO), trial 2) of the same molecule?
**A.** 59.65 ˚C

**Q.** What about the “DSF Trial 3 (melting temperature)” value (PPM1D1–420 [1]; Sup Fig 2D, protein with GSK vs WT (DMSO), trial 3) of the same molecule?
**A.** 59.85 ˚C

**Q.** And the “DSF Average (melting temperature)” value (PPM1D1–420 [1]; [4])?
**A.** 59.78 ˚C

**Q.** What about the “DSF average (Tm)” value (PPM1D1–420 [1]; source data Fig 3C, with GSK, column head empty, in °C (unit assumed)) of the same molecule?
**A.** 59.78

**Q.** And the “DSF Trial 1 (Tm)” value (PPM1D1–420 [1]; [5])?
**A.** 59.84

**Q.** What about the “DSF Trial 2 (Tm)” value (PPM1D1–420 [1]; [5]) of the same molecule?
**A.** 59.65

**Q.** What about the “DSF Trial 3 (Tm)” value (PPM1D1–420 [1]; [5]) of the same molecule?
**A.** 59.85

**Q.** And the ΔTm at 40 µM (PPM1D1–420 [2]; PPM1D1–420, 40 µM compound, read-out: thermal shift by DSC)?
**A.** 8 °C

**Q.** What about the “DSC Trial 1 (melting temperature)” value (PPM1D1–420 [2]; Sup Fig 2D, protein with GSK vs WT alone, trial 1) of the same molecule?
**A.** 62.26 ˚C

**Q.** What about the “DSC Trial 2 (melting temperature)” value (PPM1D1–420 [2]; Sup Fig 2D, protein with GSK vs WT alone, trial 2) of the same molecule?
**A.** 62.33 ˚C

**Q.** What about the “DSC Trial 3 (melting temperature)” value (PPM1D1–420 [2]; Sup Fig 2D, protein with GSK vs WT alone, trial 3) of the same molecule?
**A.** 62.14 ˚C

**Q.** What about the “DSC Average (melting temperature)” value (PPM1D1–420 [2]; [4]) of the same molecule?
**A.** 62.2433 ˚C

**Q.** And the “DSC Average (Tm)” value (PPM1D1–420 [2]; [5])?
**A.** 62.2433

**Q.** What about the “DSC Trial 1 (Tm)” value (PPM1D1–420 [2]; [5]) of the same molecule?
**A.** 62.26

**Q.** What about the “DSC Trial 2 (Tm)” value (PPM1D1–420 [2]; [5]) of the same molecule?
**A.** 62.33

**Q.** What about the “DSC Trial 3 (Tm)” value (PPM1D1–420 [2]; [5]) of the same molecule?
**A.** 62.14

**Q.** What about the “thermal shift by DSC” value (PPM1DΔflap) of the same molecule?
**A.** +8.5 °C

**Q.** And the DH (PPM1D1–420 [3]; Average of 3 trials)?
**A.** -3090.67

**Q.** What about the DS (PPM1D1–420 [3]; Average of 3 trials) of the same molecule?
**A.** 26.3

**Q.** And the DH (PPM1D1–420 [3]; individual trials)?
**A.** -2879 and -3158 and -3235

**Q.** What about the DS (PPM1D1–420 [3]; individual trials) of the same molecule?
**A.** 27.7 and 25.8 and 25.4
